Experimental data from PMC6938345, “Inhibition of complement activation, myeloperoxidase, NET formation and oxidant activity by PIC1 peptide variants” (PLoS ONE, 2019).
Where a SMILES comes first, the peptide text is derived from it. [ ]: non-standard residue; d: D form. Sar = CNCC(=O)O

Columns and labels:
[1] = tested on: antibody-initiated complement activation (type O sera + type AB red blood cells); experiment: ABO incompatibility hemolytic assay (CH50-type, ex vivo); type: cell-based, human; settings: peptides 1.8 mM; for ABO hemolysis: Avg of n = 4, concentration basis of PIC1 not stated
Experimental: For hemolytic complement assays, human red blood cells (RBCs) from type AB donors were purified, washed and standardized to 1 × 10^9 cells/ml, as previously described. Human sera from type O donors at a 20% final concentration was combined with 1 mM PIC1 or sarcosine variant peptides and the volume was brought up to 0.15 ml with GVBS^++ and 0.5 ml RBCs. For factor B-depleted sera hemolytic assays, a final of 0.005% factor B depleted sera was incubated with 1 mM PIC1 or sarcosine variant peptides with 0.1 ml antibody-sensitized sheep red blood cells (EA) in a final volume of 0.75 ml GVBS^++. The samples were incubated for 1 hour at 37 °C and then 1.0 ml of GVBS^-—was added to the factor B-depleted samples to stop the reaction. The samples were spun at 3,000 rpm for 5 minutes and the supernatant was collected and read at 412 nm. Values are represented as a percent of the positive control, which consists of human O sera and AB red blood cells in GVBS^++ buffer.
In order to evaluate the extent to which the peptide variants inhibit antibody-initiated complement activation, we tested them in two hemolytic assays including an ABO incompatibility ex vivo assay (Fig 1A) and a classical pathway CH50-type assay in factor B-depleted sera (Fig 1B). In the ABO incompatibility hemolytic assay, purified erythrocytes from a ‘type AB+’ donor are incubated with sera from a ‘type O’ subject containing anti-A and anti-B antibodies; peptides were tested at 1.8 mM. […] We then performed a CH50-type hemolytic assay, with antibody-sensitized sheep erythrocytes, isolating the classical pathway by utilizing factor B-depleted sera; peptides were tested at 0.4 mM.
Fig 1 Sarcosine variant inhibition of complement activation in hemolytic assays and C1q binding. A) Inhibition of ABO incompatibility hemolysis in a CH50-type assay. Peptides are at a final concentration of 1.8 mM. […] Data are the means of n = 4 independent experiments + SEM. B) Inhibition of classical complement pathway-mediated hemolysis in factor B-depleted sera in a CH50-type assay. Peptides are at a final concentration of 0.4 mM. Data are the means of n = 4 independent experiments + SEM. C) Binding of increasing concentrations of sarcosine variants to purified C1q in an ELISA-type assay. Data are the means of n = 3 independent experiments ± SEM. D) Half-maximal binding concentrations were calculated for each peptide’s binding curve.

[2] = Total Antioxidant Capacity (TAC) assay; settings: for TAC assay, antioxidant activity: Avg of n = 3; for antioxidant capacity (in words): TAC assay
Experimental: The TAC (Total Antioxidant Capacity) Assay (Cell Biolabs, Inc, San Diego, CA) was used to measure the antioxidant capacity of the sarcosine variants based on the reduction of copper (II) to copper (I). The kit protocol was performed as recommended.
Antioxidant activity is measured in copper reducing equivalents (CRE). Peptides were tested over a range of concentrations from 0.03–0.25 mM then compared to the standard. Data are the means of n = 3 independent experiments + SEM.

[3] = tested on: purified human neutrophils; experiment: NETosis assay, free DNA by PicoGreen; type: cell-based; settings: for PICO green - NETs, free DNA release: Average of n = 3, peptide 2 mM
Experimental: NETosis assays with immune complexes were performed as previously described. Briefly, normal human serum was stimulated with ovalbumin-antiovalbumin immune complexes in GVBS^++ for 30 minutes at 37 °C. This mixture along with 0.05% H2O2 was then added to purified human neutrophils resuspended in RPMI with or without sarcosine variants (2 mM), allowing NETosis to occur. Quantitation of free DNA released from the neutrophils was performed using PicoGreen. Slides were stained with DAPI (Southern Biotech, Birmingham, AL) and the following antibodies, mouse anti-elastase (Invitrogen, Carlsbad, CA) was used with the secondary goat anti-mouse Alexa Fluor 568 (Novus Biologicals, Centennial, CO) and rabbit anti-histone H3 (Abcam, Cambridge MA) with goat anti-rabbit Alexa Fluor 488 (Novus Biologicals) to visualize formation of NETs which were imaged with fluorescence microscopy with an Olympus BX53 microscope.
In this assay purified human neutrophils are stimulated with normal human serum activated with ovalbumin-antiovalbumin immune complexes and hydrogen peroxide. Free DNA expressed from the neutrophils is then measured in a PicoGreen assay.
Fig 5 Sarcosine variant inhibition of NET formation. Fluorescence microscopy images of NET formation after neutrophil stimulation with immune complexes (IC) and hydrogen peroxide (H2O2) compared with neutrophil only control. Variant I8 inhibition of NET formation is shown in the third row. Histones are probed with anti-histone antibody (αhistone), neutrophil elastase is probed with anti-neutrophil elastase (αNE) and DNA is stained with DAPI. Representative images are shown. […] Purified human neutrophils were stimulated with 2% normal human sera pre-incubated with ovalbumin-antiovalbumin immune complexes, and 0.05% H2O2. Sarcosine peptides and PIC1 were added to the sera to a final concentration of 2 mM. Data are the means of n = 3 independent experiments + SEM.

[4] = Peptide solubility in water
Experimental: (PA) (Table 1) were synthesized by New England Peptide (Gardner, MA) to >90% purity. Sarcosine variants and PEG were dissolved in water and the pH was adjusted with NaOH. PA was dissolved in DMSO and then brought up to the final concentration with water resulting in 30% DMSO and pH adjusted. Antibody sensitized sheep erythrocytes (EA), purified C1q and factor B-depleted human sera were purchased from Complement Technology (Tyler, TX). Purified myeloperoxidase was purchased from Lee BioSolutions (Maryland Heights, MO) and tetramethylbenzidine (TMB) and PicoGreen were purchased from Thermo Fisher (Waltham MA).
(PA), peptide derivatives were synthesized with sarcosine residues substituted at all 15 positions, included a peptide in which the vicinal cysteines at positions 9 and 10 (C9,C10) were replaced with a single sarcosine residue (Table 1).

C1q = molecular target: T1, C1q (Homo sapiens, UniProt P02745+P02746+P02747); experiment: C1q binding ELISA-type assay; settings: C1q as capture substrate
T1 construct: purchased Complement Technology (Tyler, TX)
T1 sequence (P02745 23-245): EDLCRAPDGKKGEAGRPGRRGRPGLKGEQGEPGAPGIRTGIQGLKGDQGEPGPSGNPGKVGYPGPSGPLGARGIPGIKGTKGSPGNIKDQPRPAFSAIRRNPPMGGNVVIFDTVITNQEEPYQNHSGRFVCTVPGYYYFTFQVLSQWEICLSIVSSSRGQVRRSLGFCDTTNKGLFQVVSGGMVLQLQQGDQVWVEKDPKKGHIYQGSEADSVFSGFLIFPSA
T1 sequence (P02746 28-253): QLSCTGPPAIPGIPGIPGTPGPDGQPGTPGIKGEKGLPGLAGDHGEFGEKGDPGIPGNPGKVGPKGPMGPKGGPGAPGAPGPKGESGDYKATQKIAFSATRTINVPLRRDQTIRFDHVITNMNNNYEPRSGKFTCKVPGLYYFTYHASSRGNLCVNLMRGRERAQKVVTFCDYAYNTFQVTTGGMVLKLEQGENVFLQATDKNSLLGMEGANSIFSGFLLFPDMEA
T1 sequence (P02747 29-245): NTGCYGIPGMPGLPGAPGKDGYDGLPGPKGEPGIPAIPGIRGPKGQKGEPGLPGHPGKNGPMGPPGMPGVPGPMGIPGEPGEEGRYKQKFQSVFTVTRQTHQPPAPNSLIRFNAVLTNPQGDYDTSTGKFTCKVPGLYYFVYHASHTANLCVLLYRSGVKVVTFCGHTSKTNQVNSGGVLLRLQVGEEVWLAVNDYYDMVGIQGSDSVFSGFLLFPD
Experimental: An Immunlon-2 HB ELISA plate was coated with 1 μg/ml C1q or MPO in bicarbonate buffer overnight at 4 °C. The plates were washed with PBST (phosphate buffered saline + 0.1% Tween) and then blocked with 1% gelatin/PBS for 2 hours at room temperature. After washing, the plates were incubated with PA or sarcosine variant peptides starting at 2.5 mg/ml and then serially diluted in 1% gelatin/PBS for 1 hour at room temperature. After washing, the plates were probed with rabbit anti-PA (developed with Cocalico Biologicals, Reamstown, PA) at 1:1000 in 1% gelatin/PBS for 1 hour, room temperature, followed by a goat anti-rabbit HRP (Sigma Aldrich, St Louis, MO) at 1:1,000 in 1% gelatin/PBS for 1 hour at room temperature with a washing step in between. Wells were developed using TMB substrate solution, stopped using 1 N H2SO4, and read at 450 nm in a plate reader.
We then tested peptide variant binding to C1q in an ELISA-type assay in which the C1q is used as the capture substrate. Binding curves for each peptide is shown in Fig 1C, from which half-maximal binding concentrations were calculated (Fig 1D). […] Higher concentrations of DMSO interfere with the detecting reagents resulting in a partial binding curve.

SMILES | ABO hemolysis [1] | inhibition of ABO incompatible hemolysis (in words) [1] | TAC assay, antioxidant activity [2] | PICO green - NETs, free DNA release [3] | solubility in water (in words) [4] | antioxidant capacity (in words) [2] | inhibition of NETosis (in words) ([3]; peptides 2 mM, immune complexes + H2O2, PicoGreen free DNA) | binding to C1q (in words) (C1q)
CC[C@H](C)[C@H](N)C(=O)N(C)CC(=O)N[C@@H](CC(C)C)C(=O)N[C@H](C(=O)N[C@@H](CC(C)C)C(=O)N[C@@H](CCC(=O)O)C(=O)N1CCC[C@H]1C(=O)N[C@H](C(=O)N[C@@H](CS)C(=O)N[C@@H](CS)C(=O)N[C@@H](CCC(N)=O)C(=O)N[C@@H](CCC(=O)O)C(=O)N[C@@H](CCCNC(=N)N)C(=O)N[C@@H](C)C(=O)N[C@@H](C)C(=O)O)[C@@H](C)CC)[C@@H](C)CC [A2] | 18.50 % of Control | to a greater extent than did the PA-dPEG24 | 1071.61 copper reducing equivalents (CRE) | 44 | soluble in water | – | – | –
CC[C@H](C)[C@H](N)C(=O)N[C@@H](C)C(=O)N[C@@H](CC(C)C)C(=O)N[C@H](C(=O)N[C@@H](CC(C)C)C(=O)N[C@@H](CCC(=O)O)C(=O)N1CCC[C@H]1C(=O)N[C@H](C(=O)N(C)CC(=O)N[C@@H](CCC(N)=O)C(=O)N[C@@H](CCC(=O)O)C(=O)N[C@@H](CCCNC(=N)N)C(=O)N[C@@H](C)C(=O)N[C@@H](C)C(=O)O)[C@@H](C)CC)[C@@H](C)CC [C9,10] (H-IALILEPI[Sar]QERAA-OH) | – | – | – | – | soluble in water | – | – | –
CC[C@H](C)[C@H](N)C(=O)N[C@@H](C)C(=O)N[C@@H](CC(C)C)C(=O)N(C)CC(=O)N[C@@H](CC(C)C)C(=O)N[C@@H](CCC(=O)O)C(=O)N1CCC[C@H]1C(=O)N[C@H](C(=O)N[C@@H](CS)C(=O)N[C@@H](CS)C(=O)N[C@@H](CCC(N)=O)C(=O)N[C@@H](CCC(=O)O)C(=O)N[C@@H](CCCNC(=N)N)C(=O)N[C@@H](C)C(=O)N[C@@H](C)C(=O)O)[C@@H](C)CC [I4] | 18.25 % of Control | to a greater extent than did the PA-dPEG24 | 1518.02 copper reducing equivalents (CRE) | 68 | soluble in water | approaching that of PA-dPEG24 | reduced ability to inhibit NETosis | –
CC[C@H](C)[C@H](N)C(=O)N[C@@H](C)C(=O)N(C)CC(=O)N[C@H](C(=O)N[C@@H](CC(C)C)C(=O)N[C@@H](CCC(=O)O)C(=O)N1CCC[C@H]1C(=O)N[C@H](C(=O)N[C@@H](CS)C(=O)N[C@@H](CS)C(=O)N[C@@H](CCC(N)=O)C(=O)N[C@@H](CCC(=O)O)C(=O)N[C@@H](CCCNC(=N)N)C(=O)N[C@@H](C)C(=O)N[C@@H](C)C(=O)O)[C@@H](C)CC)[C@@H](C)CC [L3] | 24.75 % of Control | – | 1336.63 copper reducing equivalents (CRE) | 29 | soluble in water | approaching that of PA-dPEG24 | – | –
CC[C@H](C)[C@H](N)C(=O)N[C@@H](C)C(=O)N[C@@H](CC(C)C)C(=O)N[C@H](C(=O)N(C)CC(=O)N[C@@H](CCC(=O)O)C(=O)N1CCC[C@H]1C(=O)N[C@H](C(=O)N[C@@H](CS)C(=O)N[C@@H](CS)C(=O)N[C@@H](CCC(N)=O)C(=O)N[C@@H](CCC(=O)O)C(=O)N[C@@H](CCCNC(=N)N)C(=O)N[C@@H](C)C(=O)N[C@@H](C)C(=O)O)[C@@H](C)CC)[C@@H](C)CC [L5] | 33.50 % of Control | – | 882.23 copper reducing equivalents (CRE) | 32 | soluble in water | – | – | –
CC[C@H](C)[C@H](N)C(=O)N[C@@H](C)C(=O)N[C@@H](CC(C)C)C(=O)N[C@H](C(=O)N[C@@H](CC(C)C)C(=O)N[C@@H](CCC(=O)O)C(=O)N1CCC[C@H]1C(=O)N[C@H](C(=O)N[C@@H](CS)C(=O)N[C@@H](CS)C(=O)N[C@@H](CCC(N)=O)C(=O)N[C@@H](CCC(=O)O)C(=O)N[C@@H](CCCNC(=N)N)C(=O)N[C@@H](C)C(=O)N[C@@H](C)C(=O)O)[C@@H](C)CC)[C@@H](C)CC [PA] | – | – | 1289.18 copper reducing equivalents (CRE) | – | poor aqueous solubility | – | – | superior binding to C1q
